One data set has as its target T1, CDK2/cyclin A (Homo sapiens, UniProt P24941).
T1 construct: made in house; host or cells: insect cells infected with baculoviruses
As to the kind of experiment: Inhibitory activity against CDK2/cyclin A enzyme (GST-RB phosphorylation, P32-γ-ATP, scintillation counting). It counts as biochemical. The following applies: 100 μM ATP, GST-RB substrate, 30° C. 30 minutes. The protocol:
(§1) Analysis of inhibitory activity against CDK2/cyclin A and CDK4/cyclin D1 enzyme.
(§2) The inhibitory activity against CDK2 is measured by referring to Kitagawa, M. et al., Oncogene 9:2549, 1994 and the inhibitory activity against CDK4 is measured by referring to Carlson, B. A. et al., Cancer Research 56:2473,1996.
(§3) As for CDK2, either the extract from the insect cell infected both with baculovirus which expresses CDK2 gene and baculovirus which expresses cyclin A gene or the active enzyme which had been purified therefrom was used. CDK4 enzyme was also obtained from the insect cell infected both with baculovirus expressing CDK4 gene and baculovirus expressing cyclin D1 gene. As the substrate for CDK2, either histon H1 or Rb protein was used. Rb protein was also used as the substrate for CDK4.
(§4) Specifically the activities of enzymes CDK2/cyclin A and CDK4/cyclin D1 were determined according to the following procedure.
(§5) 100 ng of enzyme was reacted in a total 1000 μl of 20 mM Tris (pH 8.0), 100 mM NaCl, 10 mM MgCl2 buffer solution containing 20 μg of GST-RB protein, 100 μM of ATP and 5 μCi of P32-γ-ATP at 30° C. for 30 minutes. Then, the enzyme reaction was stopped by adding EDTA to a concentration of 20 mM. Subsequently, 30 μl of 50% glutathione bead (purchased from Pharmacia) was added to attach GST-RB to the bead, which was washed three times with 20mM Tris (pH 8.0), 100 mM NaCl, 10 mM EDTA solution, and then scintillation counting was carried out. To analyze the inhibitory activity of the compound, the inhibitor having a proper concentration was added to the enzyme reaction solution, and then the enzyme activity was measured according to the above method.
(§6) The inhibitory activity of the compound of formula (1) according to the present invention against CDK2 and CDK4 is represented as IC50 value. The compounds which are not included in Examples(compound 63, 64, 65 and 66) were synthesized and purified according to the same procedure as examples, and then IC50 thereof was measured.

In another data set the target is T2, CDK4/cyclin D1 (Homo sapiens, UniProt P11802).
T2 construct: made in house; host or cells: insect cells infected with baculoviruses
As to the kind of experiment: Inhibitory activity against CDK4/cyclin D1 enzyme (GST-RB phosphorylation, P32-γ-ATP, scintillation counting). In kind it is biochemical. The note with it: CDK4/cyclin D1, 100 μM ATP, GST-RB substrate, 30° C. 30 minutes. The protocol:
as §1, §2, §3, §4, §5, §6

Another data set in a line: in vivo. The following applies: male, ICR, mouse, po. Here is the method:
The acute oral toxcities of the compounds 14, 17, 28, 39, 51 and 57 each of which is obtained in Examples 14, 17, 73,84, 96 and 102, respectively are investigated in the following.
Solutions containing a compound in several different concentrations from each other were prepared, and they were administered orally to ICR male mouse with a dose of 10 ml/kg.
After administration, lethality and symptoms for 7 days were observed, and LD50 (mg/kg) was calculated according to Litchfield-Wilcoxon' method.

pIC50: −log10 of the molar value.

The pIC50 is the negative decadic logarithm of the IC50, by convention in mol/L. A lower pIC50 goes with a large IC50. The LD50 is the dose expected to kill half of the subjects tested. Read a low LD50 as a more toxic substance.

T2 sequence (P11802 whole entry, species assumed): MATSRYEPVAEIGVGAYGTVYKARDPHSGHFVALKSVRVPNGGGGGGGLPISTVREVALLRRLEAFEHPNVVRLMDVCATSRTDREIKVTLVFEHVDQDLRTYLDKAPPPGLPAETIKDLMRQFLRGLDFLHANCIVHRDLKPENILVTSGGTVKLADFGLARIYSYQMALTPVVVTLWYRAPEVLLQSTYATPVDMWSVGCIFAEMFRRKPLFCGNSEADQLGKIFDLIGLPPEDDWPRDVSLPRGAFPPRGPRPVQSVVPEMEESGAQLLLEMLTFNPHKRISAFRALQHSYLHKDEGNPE
T2 sequence (P24385 whole entry partner, species assumed): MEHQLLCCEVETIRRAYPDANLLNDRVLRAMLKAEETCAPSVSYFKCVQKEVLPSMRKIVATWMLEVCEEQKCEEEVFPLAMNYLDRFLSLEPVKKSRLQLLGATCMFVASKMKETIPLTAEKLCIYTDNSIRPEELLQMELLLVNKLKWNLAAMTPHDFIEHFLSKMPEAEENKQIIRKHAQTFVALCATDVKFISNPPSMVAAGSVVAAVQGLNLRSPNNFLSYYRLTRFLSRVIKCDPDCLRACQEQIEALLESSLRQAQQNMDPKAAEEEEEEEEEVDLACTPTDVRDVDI

Regarding `O=c1c(O)c(-c2ccc(O)c(O)c2)oc2ccc(O)cc12` [Compound 14, 2-(3,4-dihydroxyphenyl)-3,6-dihydroxy-4H-chromen-4-one], the pIC50 against CDK2/cyclin A and against CDK4/cyclin D1 was > 5.30 each time. For the same compound, the LD50 at 7 days in “in vivo” was > 3000 mg/kg.
With `O=c1c(O)c(-c2ccc(O)c(O)c2)oc2ccc(F)cc12` [Compound 17, 6-fluoro-2-(3,4-dihydroxyphenyl)-3-hydroxy-4H-chromen-4-one], the pIC50 against CDK2/cyclin A and against CDK4/cyclin D1 was > 5.00 each time. In addition, the LD50 at 7 days in the data set “in vivo” is > 3000 mg/kg.
Take `CC(=O)Nc1ccc2oc(-c3ccc(O)c(O)c3)c(O)c(=O)c2c1` [Compound 51, N-[2-(3,4-dihydroxyphenyl)-3-hydroxy-4-oxo-4H-chromen-6-yl]acetamide]: the pIC50 against CDK2/cyclin A and on CDK4/cyclin D1 was 5.25 in each case. Also, in the data set “in vivo”, the LD50 at 7 days was > 3000 mg/kg.
For the compound `Cc1ccc(S(=O)(=O)Nc2ccc3oc(-c4ccc(O)c(O)c4)c(O)c(=O)c3c2)cc1` [Compound 28, N-[2-(3,4-dihydroxyphenyl)-3-hydroxy-4-oxo-4H-chromen-6-yl]-4-methylbenzenesulfonamide], the pIC50 against CDK2/cyclin A was 4.25; on CDK4/cyclin D1, 5.11. Also, in the data set “in vivo”, the LD50 at 7 days is > 3000 mg/kg.
The matching figures for `O=c1c(O)c(-c2ccc(O)c(O)c2)oc2ccc(NS(=O)(=O)c3ccc(C(F)(F)F)cc3)cc12` [Compound 39, N-[2-(3,4-dihydroxyphenyl)-3-hydroxy-4-oxo-4H-chromen-6-yl]-4-(trifluoromethyl)benzenesulfonamide]: 4.26, 5.19 and > 3000 mg/kg.
On the same counts, the results for `O=C(NC(=O)c1ccccc1)Nc1ccc2oc(-c3ccc(O)c(O)c3)c(O)c(=O)c2c1` [Compound 57, N-benzoyl-N′-[2-(3,4-dihydroxyphenyl)-3-hydroxy-4-oxo-4H-chromen-6-yl]urea] are 4.65, 4.74 and > 3000 mg/kg.

The values above are taken from patent publication US6500846B1, “CDK inhibitors having flavone structure” (LG Chemical, Ltd., priority 1998, dated 2002).
